Here are results for 31 compounds from patent US10674727B2, “Substituted oxadiazoles for combating phytopathogenic fungi” (priority 2015, dated 2020).

Molecules are shown by their SMILES.

The first assay concerns Phakopsora pachyrhizi. Nature of the assay: Protective control of soy bean rust on soy beans (glass house trial). It is filed as in vivo. Particulars: 16 ppm active compound, sprayed 2 days before inoculation, soy bean seedlings; untreated plants 90%. As for the experimental part: The spray solutions were prepared in several steps: The stock solution were prepared: a mixture of acetone and/or dimethylsulfoxide and the wetting agent/emulsifier Wettol, which is based on ethoxylated alkylphenoles, in a relation (volume) solvent-emulsifier of 99 to 1 was added to 25 mg of the compound to give a total of 5 ml. Water was then added to total volume of 100 ml. This stock solution was diluted with the described solvent-emulsifier-water mixture to the given concentration.
II.2) Protective control of soy bean rust on soy beans caused by Phakopsora pachyrhizi Leaves of pot-grown soy bean seedlings were sprayed to run-off with an aqueous suspension, containing the concentration of active ingredient or their mixture as described below. The plants were allowed to air-dry. The trial plants were cultivated for 2 day in a greenhouse chamber at 23 to 27° C. and a relative humidity between 60 and 80%. Then the plants were inoculated with spores of Phakopsora pachyrhizi. To ensure the success the artificial inoculation, the plants were transferred to a humid chamber with a relative humidity of about 95% and 20 to 24° C. for 24 h. The trial plants were cultivated for fourteen days in a greenhouse chamber at 23 to 27° C. and a relative humidity between 60 and 80%. The extent of fungal attack on the leaves was visually assessed as % diseased leaf area.
In turn, `CCN(Cc1ccc(-c2noc(C(F)(F)F)n2)cc1)C(=O)C(C)C` [Ex-24] came in with a diseased leaf area of 0%.

Take `CCCC(=O)N(CC)Cc1ccc(-c2noc(C(F)(F)F)n2)cc1` [Ex-25]: the diseased leaf area is listed as 0%.

Take `CCC(=O)N(CC)Cc1ccc(-c2noc(C(F)(F)F)n2)cc1` [Ex-26]: the diseased leaf area turned out to be 0%.

As for `CCN(Cc1ccc(-c2noc(C(F)(F)F)n2)cc1)C(=O)C(C)(C)C` [Ex-27], the diseased leaf area turned out to be 0%.

Still in this assay, the particulars now being: 32 ppm active compound, sprayed 2 days before inoculation, soy bean seedlings; untreated plants 90%.
Compound `CNC(c1ccc(-c2noc(C(F)(F)F)n2)cc1)C(F)(F)F` (stereo not shown) [Ex-1] had a diseased leaf area of 0%.

The compound `C=CCN(Cc1ccc(-c2noc(C(F)(F)F)n2)cc1)C(C)=O` [Ex-4] returned a diseased leaf area of 0%.

As for `C=CCN(Cc1ccc(-c2noc(C(F)(F)F)n2)cc1)C(=O)CC` [Ex-5], the diseased leaf area is 0%.

Consider `C=CCN(Cc1ccc(-c2noc(C(F)(F)F)n2)cc1)C(=O)C(C)(C)C` [Ex-6], for which the diseased leaf area amounted to 0%.

For the compound `CCC(=O)N(C)Cc1ccc(-c2noc(C(F)(F)F)n2)cc1` [Ex-7], the diseased leaf area came out at 0%.

`CN(Cc1ccc(-c2noc(C(F)(F)F)n2)cc1)C(=O)C(C)(C)C` [Ex-8]: the diseased leaf area is recorded as 0%.

The compound `CCC(=O)N(Cc1ccc(-c2noc(C(F)(F)F)n2)cc1)C(C)C` [Ex-9] showed a diseased leaf area of 0%.

Compound `CC(C)N(Cc1ccc(-c2noc(C(F)(F)F)n2)cc1)C(=O)C(C)(C)C` [Ex-10] came in with a diseased leaf area of 0%.

In turn, `CCC(CC)C(=O)N(C)Cc1ccc(-c2noc(C(F)(F)F)n2)cc1` [Ex-11] returned a diseased leaf area of 0%.

For `CCCC(=O)N(C)Cc1ccc(-c2noc(C(F)(F)F)n2)cc1` [Ex-12], the diseased leaf area stood at 0%.

`CC(C)C(=O)N(C)Cc1ccc(-c2noc(C(F)(F)F)n2)cc1` [Ex-13, N,2-dimethyl-N[[4-[5-(trifluoromethyl)-1,2,4-oxadiazol-3-yl]phenyl]methyl]propanamide] yielded a diseased leaf area of 0%.

For `CCC(C)C(=O)N(C)Cc1ccc(-c2noc(C(F)(F)F)n2)cc1` (stereo not shown) [Ex-14], the diseased leaf area is given as 0%.

`CC(=O)NCc1ccc(-c2noc(C(F)(F)F)n2)cc1` [Ex-15]: the diseased leaf area is 0%.

In turn, `CC(=O)N(C)C(C)c1ccc(-c2noc(C(F)(F)F)n2)cc1` (stereo not shown) [Ex-16, N-methyl-N-[1-[4-[5-(trifluoromethyl)-1,2,4-oxadiazol-3-yl]phenyl]ethyl]acetamide] returned a diseased leaf area of 0%.

`CC(c1ccc(-c2noc(C(F)(F)F)n2)cc1)N(C)C(=O)C(C)(C)C` (stereo not shown) [Ex-17] registered a diseased leaf area of 0%.

Compound `CCC(=O)N(C)C(C)c1ccc(-c2noc(C(F)(F)F)n2)cc1` (stereo not shown) [Ex-18] showed a diseased leaf area of 0%.

Take `CCCC(=O)N(C)C(C)c1ccc(-c2noc(C(F)(F)F)n2)cc1` (stereo not shown) [Ex-19]: the diseased leaf area is given as 0%.

Compound `CCC(CC)C(=O)N(C)C(C)c1ccc(-c2noc(C(F)(F)F)n2)cc1` (stereo not shown) [Ex-20] showed a diseased leaf area of 0%.

`CC(C)C(=O)N(C)C(C)c1ccc(-c2noc(C(F)(F)F)n2)cc1` (stereo not shown) [Ex-21]: the diseased leaf area was determined as 0%.

In turn, `CCC(C)C(=O)N(C)C(C)c1ccc(-c2noc(C(F)(F)F)n2)cc1` (stereo not shown) [Ex-22] registered a diseased leaf area of 0%.

`CC(=O)NC(c1ccc(-c2noc(C(F)(F)F)n2)cc1)C(F)(F)F` (stereo not shown) [Ex-23] gave a diseased leaf area of 0%.

`CCC(C)C(=O)N(CC)Cc1ccc(-c2noc(C(F)(F)F)n2)cc1` (stereo not shown) [Ex-28] returned a diseased leaf area of 0%.

Compound `CC(C)CC1CCN(Cc2ccc(-c3noc(C(F)(F)F)n3)cc2)C1=O` (stereo not shown) [Ex-29] yielded a diseased leaf area of 0%.

Take `O=C1CCCN1Cc1ccc(-c2noc(C(F)(F)F)n2)cc1` [Ex-30, 1-[[4-[5-(trifluoromethyl)-1,2,4-oxadiazol-3-yl]phenyl]methyl] pyrrolidin-2-one]: the diseased leaf area is on record as 0%.

`CC1(C)CC(=O)N(Cc2ccc(-c3noc(C(F)(F)F)n3)cc2)C1` [Ex-31]: the diseased leaf area stood at 0%.

Compound `CC1CCN(Cc2ccc(-c3noc(C(F)(F)F)n3)cc2)C1=O` (stereo not shown) [Ex-32] came in with a diseased leaf area of 0%.

The compound `CC1(C)CCC(=O)N(Cc2ccc(-c3noc(C(F)(F)F)n3)cc2)C1` [Ex-33] returned a diseased leaf area of 0%.
